Assay results reported in PubChem BioAssay AID226 (DTP/NCI, 2004).
Values joined by “and” are separate entries in the source; they are usually repeats but may differ in a detail not shown here. Identical values can stand only once. Inconclusive results and toxic doses are left out.

System: B6C3F1 mice, intracerebral ependymoblastoma, median survival T/C
Test: NCI In Vivo Anticancer Drug Screen. Data for tumor model Ependymoblastoma (intracerebral) in B6C3F1 mice
Conditions: endpoint: median survival time, higher = longer survival
Procedure: The antitumor activity of compounds was measured in mice bearing transplantable tumors. Survival or tumor size were measured and the results are expressed as the measurement made in the treated group (T) divided by the measurement made in the vehicle treated control group (C). The tumor model used in this assay is Ependymoblastoma (intracerebral) in B6C3F1 mice

[1] = dose: 25.0 mg/kg/injection, schedule: Q01DX009 (ip), vehicle: saline with Tween-80
[2] = dose: 50.0 mg/kg/injection, schedule: Q01DX009 (ip), vehicle: saline with Tween-80

Compound: CCN(CC)CCOc1ccc(/C(=C(\Cl)c2ccccc2)c2ccccc2)cc1
- T/C (dose: 8.0 mg/kg/injection, schedule: Q01DX005 (ip), vehicle: saline): 101 % of control and 106 % of control
- T/C (dose: 16.0 mg/kg/injection, schedule: Q01DX005 (ip), vehicle: saline): 93 % of control and 100 % of control
- T/C (dose: 32.0 mg/kg/injection, schedule: Q01DX005 (ip), vehicle: saline): 92 % of control and 103 % of control
- T/C (dose: 64.0 mg/kg/injection, schedule: Q01DX005 (ip), vehicle: saline): 101 % of control and 104 % of control

Compound: CCCS(=O)CC1NC(=O)NC1=O (centres undefined)
- T/C (dose: 9.38 mg/kg/injection, schedule: Q01DX005 (ip), vehicle: Klucel (hydroxypropylcellulose) (HPC)): 101 % of control
- T/C (dose: 18.75 mg/kg/injection, schedule: Q01DX005 (ip), vehicle: Klucel (hydroxypropylcellulose) (HPC)): 98 % of control
- T/C (dose: 37.5 mg/kg/injection, schedule: Q01DX005 (ip), vehicle: Klucel (hydroxypropylcellulose) (HPC)): 109 % of control
- T/C (dose: 75.0 mg/kg/injection, schedule: Q01DX005 (ip), vehicle: Klucel (hydroxypropylcellulose) (HPC)): 106 % of control
- T/C (dose: 150.0 mg/kg/injection, schedule: Q01DX005 (ip), vehicle: Klucel (hydroxypropylcellulose) (HPC)): 98 % of control

Compound: O=NN(CCF)C(=O)NCCO
- T/C (dose: 5.18 mg/kg/injection, schedule: Q01DX005 (ip), vehicle: Klucel (hydroxypropylcellulose) (HPC)): 189 % of control
- T/C (dose: 8.64 mg/kg/injection, schedule: Q01DX005 (ip), vehicle: Klucel (hydroxypropylcellulose) (HPC)): 357 % of control
- T/C (dose: 13.0 mg/kg/injection, schedule: Q01DX001 (ip), vehicle: saline): 115 % of control
- T/C (dose: 14.4 mg/kg/injection, schedule: Q01DX005 (ip), vehicle: Klucel (hydroxypropylcellulose) (HPC)): 357 % of control
- T/C (dose: 21.6 mg/kg/injection, schedule: Q01DX001 (ip), vehicle: saline): 181 % of control
- T/C (dose: 24.0 mg/kg/injection, schedule: Q01DX005 (ip), vehicle: Klucel (hydroxypropylcellulose) (HPC)): 357 % of control
- T/C (dose: 36.0 mg/kg/injection, schedule: Q01DX001 (ip), vehicle: saline): 363 % of control
- T/C (dose: 60.0 mg/kg/injection, schedule: Q01DX001 (ip), vehicle: saline): 363 % of control

Compound: O=C1NC(c2ccc(Cl)cc2)(c2ccc(Cl)cc2)C(=O)N1Cl
- T/C (dose: 1.56 mg/kg/injection, schedule: Q01DX009 (ip), vehicle: saline with Tween-80): 102 % of control
- T/C (dose: 3.13 mg/kg/injection, schedule: Q01DX009 (ip), vehicle: saline with Tween-80): 105 % of control
- T/C (dose: 6.25 mg/kg/injection, schedule: Q01DX009 (ip), vehicle: saline with Tween-80): 102 % of control
- T/C (dose: 12.5 mg/kg/injection, schedule: Q01DX009 (ip), vehicle: saline with Tween-80): 101 % of control and 104 % of control
- T/C [1]: 95 % of control and 99 % of control
- T/C [2]: 101 % of control

Compound: COc1cc(NC(=O)CN(CCCl)CCCl)cc(OC)c1OC
- T/C [1]: 113 % of control
- T/C [2]: 113 % of control

Compound: CC(=O)O[C@H]1C(=O)[C@@]2(C)[C@H]([C@H](OC(=O)c3ccccc3)[C@]3(O)C[C@H](OC(=O)[C@H](O)[C@@H](NC(=O)c4ccccc4)c4ccccc4)C(C)=C1C3(C)C)[C@]1(OC(C)=O)CO[C@@H]1C[C@@H]2O
- T/C (dose: 2.5 mg/kg/injection, schedule: Q01DX005 (ip), vehicle: Klucel (hydroxypropylcellulose) (HPC)): 107 % of control
- T/C (dose: 5.0 mg/kg/injection, schedule: Q01DX005 (ip), vehicle: Klucel (hydroxypropylcellulose) (HPC)): 101 % of control
- T/C (dose: 10.0 mg/kg/injection, schedule: Q01DX005 (ip), vehicle: Klucel (hydroxypropylcellulose) (HPC)): 91 % of control and 106 % of control
- T/C (dose: 20.0 mg/kg/injection, schedule: Q01DX005 (ip), vehicle: Klucel (hydroxypropylcellulose) (HPC)): 91 % of control

Compound: Cc1[nH]c(=O)[nH]c(=O)c1N(CCF)CCCl
- T/C (dose: 2.0 mg/kg/injection, schedule: Q01DX005 (ip), vehicle: Klucel (hydroxypropylcellulose) (HPC)): 90 % of control
- T/C (dose: 2.0 mg/kg/injection, schedule: Q01DX005 (ip), vehicle: saline with Tween-80): 98 % of control and 100 % of control
- T/C (dose: 4.0 mg/kg/injection, schedule: Q01DX005 (ip), vehicle: Klucel (hydroxypropylcellulose) (HPC)): 93 % of control and 108 % of control
- T/C (dose: 4.0 mg/kg/injection, schedule: Q01DX005 (ip), vehicle: saline with Tween-80): 102 % of control and 105 % of control
- T/C (dose: 8.0 mg/kg/injection, schedule: Q01DX005 (ip), vehicle: Klucel (hydroxypropylcellulose) (HPC)): 97 % of control and 114 % of control
- T/C (dose: 8.0 mg/kg/injection, schedule: Q01DX005 (ip), vehicle: saline with Tween-80): 96 % of control and 100 % of control
- T/C (dose: 16.0 mg/kg/injection, schedule: Q01DX005 (ip), vehicle: Klucel (hydroxypropylcellulose) (HPC)): 107 % of control and 89 % of control
- T/C (dose: 16.0 mg/kg/injection, schedule: Q01DX005 (ip), vehicle: saline with Tween-80): 106 % of control and 107 % of control
- T/C (dose: 32.0 mg/kg/injection, schedule: Q01DX005 (ip), vehicle: Klucel (hydroxypropylcellulose) (HPC)): 94 % of control and 123 % of control
- T/C (dose: 32.0 mg/kg/injection, schedule: Q01DX005 (ip), vehicle: saline with Tween-80): 100 % of control
